Laboratory results from patent US8802240B2, “Uses of formulations of thyroid hormone analogs and nanoparticulate forms thereof to increase chemosensitivity and radiosensitivity in tumor or cancer cells” (Nanopharmaceuticals LLC, priority 2011, dated 2014).
“Also recorded” adds a separate entry of the source.

Legend:
[1] = test system: GL261 murine brain tumor cells; test: GL261 clonogenic survival after single doses of 250 kVp x-rays; type: cell-based
Method: To irradiate 25 cm^2 flasks, an x-ray machine was used and (Philips 250 kVp Therapeutic X-ray Machine, Einhoven, […]) operated at 250 kVp and 15 mA with added filtration of 0.4 mm Thoreaus filter. The target to source distance was approximately 30 cm. Dose rates were measured using an R-meter (Victoreen R-meter, Cleveland, Ohio), and converted to absorbed (Gy) doses using appropriate temperature, pressure, and R to Gy conversion factors. The dose rate was 1 Gy per min. Flasks were irradiated at ambient temperature.
For […] analyses, survival data lying at or below 36.8% survival were analyzed by using the log fractional survival (log F×S) versus dose (D). Data were fit using linear regression analysis (SigmaPlot, V. 10, Systat Corp., Point Richmond, Calif.) to obtain the Y-intercept (or n, the extrapolation number) and the slope (1/D0), and their 95% confidence limits. (See Goldstein, A. In: Biostatistics, New York, The MacMillan Co., 1964, p. 140-146). The D0 value (Gy) is defined as the inverse of the slope, and the corrected Dq value (Gy) was then defined using the relationship: Dq(Gy)=ln n×D0(Gy) The 95% confidence limits on Dq were defined using error propagation. (See Chase, et al., In: Principles of Radioisotope Methodology. Minneapolis, Minn. Burgess Publ. Co., 1962, p. 68, 87-90). Statistics: LQ Analysis
For LQ analyses, data lying between a fractional survival of 1.00 and 0.05 were used. The fractional survival data at each dose were transformed using the relationship (−ln F×S/D) and plotted against dose (D). A regression analysis was performed to yield the LQ equation along with their 95% confidence limit values using a t-table with the appropriate (N−1) degrees of freedom. (See Goldstein, A. In: Biostatistics, New York, The MacMillan Co., 1964, p. 140-146).
To determine the Tetrac modification factor (TMF), the survival at 2 Gy obtained for control cells was divided by the survival at 2 Gy for Tetrac treated cells. The 95% confidence limits on the ratio were determined using error propagation techniques. (See Chase, et al. In: Principles of Radioisotope Methodology, Minneapolis, Minn., Burgress Publ. Co., 1962, p. 68, 87-90).

MDA-MB-231 cells = test: RNA microarray of MDA-MB-231 cells; type: cell-based, human
Method: MDA-MB-231 cells were maintained in DMEM that was supplemented with 10% FBS in a 5% CO2/95% 02 air incubator at 37° C. For two days prior to exposure to Tetrac and nanoparticulate Tetrac, cells were maintained in 0.25% FBS that was stripped of estrogen and thyroid hormone. (See Lin et al., Biochemistry 42: 7571-7579 (2003)).
Microarray analysis experiments were conducted as described previously. (See Glinsky et al., J Clin Invest 115: 1503-1521 (2005); Glinsky et al., J Clin Invest 113: 913-923 (2004); Glinsky et al., Clin Cancer Res 10: 2272-2283 (2004); and Glinsky et al., Mol Carcinog 37: 209-221 (2003)). […] Sample purity and integrity were verified with an Agilent BioAnalyzer (Santa Clara, Calif.). Expression analysis of 54,675 transcripts for each sample was by Affymetrix HG-U133A Plus 2.0 arrays. MAS5.0 software was used for data retrieval and analysis and concordant changes of gene expression in response to unmodified Tetrac and nanoparticulate Tetrac were defined by two-tailed t test at a threshold p value<0.01.
Expression of ˜54,000 transcripts was analyzed in control and drug-treated cultures, using Affymetrix Human Genome U133 plus 2.0 microarrays. Subsequent analysis was focused on genes affected by treatment at p<0.01. There was 93% concordance between Tetrac and Tetrac NP in terms of genes affected; notable disparities included downregulation of epidermal growth factor receptor (EGFR) by Tetrac NP and no affect of unmodified Tetrac on this gene.

[2] = test system: human medullary thyroid carcinoma cells; test: Confocal distribution of Cy3-labeled Tetrac vs Tetrac NP; type: cell-based; details: around 2 h
From the text: Penicillin streptomycin (1%) was present in both culture media.

MCF7 and MCF7/R cells = test: Intracellular accumulation of radiolabeled doxorubicin; type: cell-based; details: 24 hours, presence vs absence of Tetrac
Method: FIG. 15A is a Western blofshowing the expression of P-gp, GST and SOD in wild type (W) drug sensitive and resistant (R) MCF7 cells. […] The cells were treated for 24 h with each drug alone or the combination of both, after that, expression of drug resistance molecules was determined by Western blot using specific antibodies. […] The cells were incubated for 24 hours with doxorubicin in the absence or the presence of Tetrac, after that they were washed and then solubilized. Radioactivity associated with the cell lysates was counted and compared between the two cell lines either treated or not with Tetrac. The data represent an average of 3 determinations±SE.

GL261 cells = test: GL261 cell multiplicity after Tetrac exposure; type: cell-based, murine; details: one hour exposure to Tetrac
Method: Cell multiplicity (CM) was determined from Giemsa stained slides by counting the number of cells per microcolony under 20× magnification. At least 400 microcolonies were counted.
The length of time that Tetrac biologically affected GL261 cells was also determined. To do this, the multiplicity relationship defined above was utilized. Tetrac was added to cells one hour prior to the determination of the multiplicity. After the exposure of exponentially growing GL261 cells to Tetrac, the Tetrac containing medium was removed from GL261 cells, which contained an unknown residual and fresh medium (without Tetrac) was added. As a function of time (i.e., 0, 1, 2, 3, 4, 6, 8, and 10 hours, and 1-6 days), the cells, containing an unknown residual amount of remaining Tetrac, were then processed for determination of the multiplicity index (i.e. the number of cells per microcolony).

O=C(O)Cc1cc(I)c(Oc2cc(I)c(O)c(I)c2)c(I)c1 [Tetrac, tetraiodothyroacetic acid]
sensitization of oxic and hypoxic cells (in words) ([1]; 2 μM, graded doses of 250 kVp x-rays): sensitize both oxic and hypoxic cells equally
SF2 (fractional survival at 2 Gy) ([1]; exponential phase with Tetrac, control 32.7): 14.2 (10.8-18.8) %
increase of the D0 value after addition of Tetrac ([1]; exponentially growing cells): 15%
reduction of the Dq value after addition of Tetrac ([1]; exponentially growing cells): 100%
reduction of the extrapolation number n after addition of Tetrac ([1]; exponentially growing cells): 93%
reduction of n after addition of Tetrac ([1]; plateau phase cells): 93%
reduction of the D0 after addition of Tetrac ([1]; plateau phase cells): 6%
reduction of the Dq after addition of Tetrac ([1]; plateau phase cells): 100%
SF2 (fractional survival at 2 Gy) ([1]; unfed plateau phase with Tetrac, control 20.6): 7.6%
Change: BCL2L14 (MDA-MB-231 cells): not a significant stimulatory action and ↑
Change: CASP2, Caspase 2 (MDA-MB-231 cells): not a significant stimulatory action and ↑
Change: CBY1, Catenin inhibitor (MDA-MB-231 cells): significantly increased and induced and ↑
Change: CDKN2C, Cyclin-dependent kinase inhibitor (MDA-MB-231 cells): ↑
Change: CTNNA1, Catenin (MDA-MB-231 cells): ↓
Change: CTNNA2, Catenin (MDA-MB-231 cells): ↓
Change: CTSL1, Cathepsin 1 (MDA-MB-231 cells): ↓
Change: CXCL10, Anti-endothelial cell chemokine (MDA-MB-231 cells): ↑
Change: Cyclins, Cell cycle regulators (MDA-MB-231 cells): ↓
Change: EDN1, Endothelin-1 (MDA-MB-231 cells): ↑
Change: Interleukins, Inflammatory cytokines (MDA-MB-231 cells): ↓
Change: MCL1, Myeloid cell leukemia-1 (MDA-MB-231 cells): did not significantly affect and ↓
Change: NR1D1, Nuclear receptor Rev-erbα (MDA-MB-231 cells): ↓
Change: THBS1, Thrombospondin (MDA-MB-231 cells): strongly induced and ↑
Change: XIAP, X-linked inhibitor of apoptosis protein (MDA-MB-231 cells): acted on XIAP and ↓
expression of epidermal growth factor receptor (EGFR) (in words) (MDA-MB-231 cells): ineffective; also recorded: no affect
distribution within h-MTC cells (in words) [2]: distributed in the cytoplasm
intracellular accumulation of radiolabeled doxorubicin (in words) (MCF7 and MCF7/R cells): increased significantly
time for a 50% return of the cell multiplicity factor towards control (GL261 cells): approximately 2.5 days
time post Tetrac treatment at which the decrease in the CM factor was at 50% (GL261 cells): 60 h
